PubChem BioAssay (NCI)
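Briefly, cells in 96-well plates were exposed to five compound concentrations for 48 h, and endpoints were estimated by linear interpolation. GI50 = concentration required for 50% inhibition of growth. The concentration for full growth arrest is given as TGI.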

Columns and labels:
Test in all cases: NCI-60 cell line screen, 48 h
786-0 renal = system: 786-0 renal
A498 renal = system: A498 renal
A549 NSCLC = system: A549 NSCLC
ACHN renal = system: ACHN renal
BT-549 breast = system: BT-549 breast
CAKI-1 renal = system: CAKI-1 renal
CCRF-CEM leukemia = system: CCRF-CEM leukemia
COLO 205 colon = system: COLO 205 colon
DU-145 prostate = system: DU-145 prostate
EKVX NSCLC = system: EKVX NSCLC
HCC-2998 colon = system: HCC-2998 colon
HCT-116 colon = system: HCT-116 colon
HCT-15 colon = system: HCT-15 colon
HL-60(TB) leukemia = system: HL-60(TB) leukemia
HOP-62 NSCLC = system: HOP-62 NSCLC
HOP-92 NSCLC = system: HOP-92 NSCLC
HS 578T breast = system: HS 578T breast
HT29 colon = system: HT29 colon
IGROV1 ovarian = system: IGROV1 ovarian
K-562 leukemia = system: K-562 leukemia
KM12 colon = system: KM12 colon
LOX IMVI melanoma = system: LOX IMVI melanoma
M14 melanoma = system: M14 melanoma
MALME-3M melanoma = system: MALME-3M melanoma
MCF7 breast = system: MCF7 breast
MDA-MB-231 breast = system: MDA-MB-231 breast
MDA-MB-435 = system: MDA-MB-435
MOLT-4 leukemia = system: MOLT-4 leukemia
NCI-H226 lung = system: NCI-H226 lung
NCI-H23 lung = system: NCI-H23 lung
NCI-H460 lung = system: NCI-H460 lung
NCI-H522 lung = system: NCI-H522 lung
NCI/ADR-RES ovarian = system: NCI/ADR-RES ovarian
OVCAR-3 ovarian = system: OVCAR-3 ovarian
OVCAR-4 ovarian = system: OVCAR-4 ovarian
OVCAR-5 ovarian = system: OVCAR-5 ovarian
OVCAR-8 ovarian = system: OVCAR-8 ovarian
PC-3 prostate = system: PC-3 prostate
RPMI-8226 leukemia = system: RPMI-8226 leukemia
RXF 393 renal = system: RXF 393 renal
SF-268 CNS = system: SF-268 CNS
SF-295 CNS = system: SF-295 CNS
SF-539 CNS = system: SF-539 CNS
SK-MEL-2 melanoma = system: SK-MEL-2 melanoma
SK-MEL-28 melanoma = system: SK-MEL-28 melanoma
SK-MEL-5 melanoma = system: SK-MEL-5 melanoma
SK-OV-3 ovarian = system: SK-OV-3 ovarian
SN12C renal = system: SN12C renal
SNB-19 CNS = system: SNB-19 CNS
SNB-75 CNS = system: SNB-75 CNS
SR leukemia = system: SR leukemia
SW-620 colon = system: SW-620 colon
T-47D breast = system: T-47D breast
TK-10 renal = system: TK-10 renal
U251 CNS = system: U251 CNS
UACC-257 melanoma = system: UACC-257 melanoma
UACC-62 melanoma = system: UACC-62 melanoma
UO-31 renal = system: UO-31 renal

Compound: COc1cc(/C=C/C(=O)c2cc(OC)c(OC)c(OC)c2)ccc1Oc1nc(NCCO)nc(N2CCOCC2)n1
- GI50 (786-0 renal): 3.46 µM
- TGI (786-0 renal): 13 µM
- GI50 (A498 renal): 3.58 µM
- TGI (A498 renal): 13.3 µM
- GI50 (A549 NSCLC): 2780 nM
- TGI (A549 NSCLC): 9.4 µM
- GI50 (ACHN renal): 1640 nM
- TGI (ACHN renal): 3.6 µM
- GI50 (BT-549 breast): 1600 nM
- TGI (BT-549 breast): 3.32 µM
- GI50 (CAKI-1 renal): 2430 nM
- TGI (CAKI-1 renal): 9.16 µM
- GI50 (CCRF-CEM leukemia): 2380 nM
- TGI (CCRF-CEM leukemia): 23.5 µM
- GI50 (COLO 205 colon): 2100 nM
- TGI (COLO 205 colon): 4.39 µM
- GI50 (DU-145 prostate): 2990 nM
- TGI (DU-145 prostate): 12.4 µM
- GI50 (EKVX NSCLC): 2810 nM
- TGI (EKVX NSCLC): 9.99 µM
- GI50 (HCC-2998 colon): 2230 nM
- TGI (HCC-2998 colon): 4.22 µM
- GI50 (HCT-116 colon): 1530 nM
- TGI (HCT-116 colon): 3.23 µM
- GI50 (HCT-15 colon): 1600 nM
- TGI (HCT-15 colon): 4.01 µM
- GI50 (HL-60(TB) leukemia): 1540 nM
- TGI (HL-60(TB) leukemia): 6.8 µM
- GI50 (HOP-62 NSCLC): 2350 nM
- TGI (HOP-62 NSCLC): 6.04 µM
- GI50 (HOP-92 NSCLC): 2750 nM
- TGI (HOP-92 NSCLC): 9.99 µM
- GI50 (HS 578T breast): 3.62 µM
- TGI (HS 578T breast): 22.4 µM
- GI50 (HT29 colon): 2830 nM
- TGI (HT29 colon): 8.44 µM
- GI50 (IGROV1 ovarian): 2450 nM
- TGI (IGROV1 ovarian): 6.17 µM
- GI50 (K-562 leukemia): 1910 nM
- TGI (K-562 leukemia): > 100 µM
- GI50 (KM12 colon): 2990 nM
- TGI (KM12 colon): 9.63 µM
- GI50 (LOX IMVI melanoma): 642 nM
- TGI (LOX IMVI melanoma): 2040 nM
- GI50 (M14 melanoma): 2380 nM
- TGI (M14 melanoma): 7.32 µM
- GI50 (MALME-3M melanoma): 2670 nM
- TGI (MALME-3M melanoma): 6.74 µM
- GI50 (MCF7 breast): 1720 nM
- TGI (MCF7 breast): 10.8 µM
- GI50 (MDA-MB-231 breast): 2860 nM
- TGI (MDA-MB-231 breast): 11.3 µM
- GI50 (MDA-MB-435): 3.1 µM
- TGI (MDA-MB-435): 11 µM
- GI50 (MOLT-4 leukemia): 1980 nM
- TGI (MOLT-4 leukemia): 8.02 µM
- GI50 (NCI-H226 lung): 3.69 µM
- TGI (NCI-H226 lung): 19.7 µM
- GI50 (NCI-H23 lung): 1990 nM
- TGI (NCI-H23 lung): 4.8 µM
- GI50 (NCI-H460 lung): 1870 nM
- TGI (NCI-H460 lung): 4.03 µM
- GI50 (NCI-H522 lung): 1560 nM
- TGI (NCI-H522 lung): 3.17 µM
- GI50 (NCI/ADR-RES ovarian): 4.72 µM
- TGI (NCI/ADR-RES ovarian): 23.4 µM
- GI50 (OVCAR-3 ovarian): 3.2 µM
- TGI (OVCAR-3 ovarian): 10.6 µM
- GI50 (OVCAR-4 ovarian): 2920 nM
- TGI (OVCAR-4 ovarian): 10.5 µM
- GI50 (OVCAR-5 ovarian): 3.14 µM
- TGI (OVCAR-5 ovarian): 10.6 µM
- GI50 (OVCAR-8 ovarian): 2560 nM
- TGI (OVCAR-8 ovarian): 10.1 µM
- GI50 (PC-3 prostate): 3.11 µM
- TGI (PC-3 prostate): 13.5 µM
- GI50 (RPMI-8226 leukemia): 1630 nM
- TGI (RPMI-8226 leukemia): 5.85 µM
- GI50 (RXF 393 renal): 1750 nM
- TGI (RXF 393 renal): 3.48 µM
- GI50 (SF-268 CNS): 3.02 µM
- TGI (SF-268 CNS): 12.9 µM
- GI50 (SF-295 CNS): 2900 nM
- TGI (SF-295 CNS): 10.6 µM
- GI50 (SF-539 CNS): 1880 nM
- TGI (SF-539 CNS): 4.58 µM
- GI50 (SK-MEL-2 melanoma): 2760 nM
- TGI (SK-MEL-2 melanoma): 8.19 µM
- GI50 (SK-MEL-28 melanoma): 1920 nM
- TGI (SK-MEL-28 melanoma): 3.81 µM
- GI50 (SK-MEL-5 melanoma): 1770 nM
- TGI (SK-MEL-5 melanoma): 3.31 µM
- GI50 (SK-OV-3 ovarian): 2440 nM
- TGI (SK-OV-3 ovarian): 6.34 µM
- GI50 (SN12C renal): 1790 nM
- TGI (SN12C renal): 5.72 µM
- GI50 (SNB-19 CNS): 2310 nM
- TGI (SNB-19 CNS): 7.07 µM
- GI50 (SNB-75 CNS): 1790 nM
- TGI (SNB-75 CNS): 6.2 µM
- GI50 (SR leukemia): 784 nM
- TGI (SR leukemia): 4.8 µM
- GI50 (SW-620 colon): 2240 nM
- TGI (SW-620 colon): 5.78 µM
- GI50 (T-47D breast): 3.12 µM
- TGI (T-47D breast): 11.8 µM
- GI50 (TK-10 renal): 3.12 µM
- TGI (TK-10 renal): 8.93 µM
- GI50 (U251 CNS): 1620 nM
- TGI (U251 CNS): 3.12 µM
- GI50 (UACC-257 melanoma): 2830 nM
- TGI (UACC-257 melanoma): 12.7 µM
- GI50 (UACC-62 melanoma): 1690 nM
- TGI (UACC-62 melanoma): 3.19 µM
- GI50 (UO-31 renal): 1660 nM
- TGI (UO-31 renal): 3.28 µM
